Laboratory results reported in patent US20210387966A1, “2-AMINO-N-HETEROARYL-NICOTINAMIDES AS NAV1.8 INHIBITORS” (Merck Sharp & Dohme Corp., priority 2018, published 2021).

What follows are compounds tested against T1, human Nav1.8 channels (Homo sapiens, UniProt Q9Y5Y9) (assay: Nav1.8 Qube automated patch-clamp assay). Settings: human Nav1.8 stably expressed in HEK 293 cells; whole-cell voltage clamp, room temperature; resting or inactivated state not specified; read-out: IC50 values (nM) for Examples in the Nav1.8 Qube Assay.
T1 construct: expressed in transfected cells
T1 sequence (Q9Y5Y9 whole entry): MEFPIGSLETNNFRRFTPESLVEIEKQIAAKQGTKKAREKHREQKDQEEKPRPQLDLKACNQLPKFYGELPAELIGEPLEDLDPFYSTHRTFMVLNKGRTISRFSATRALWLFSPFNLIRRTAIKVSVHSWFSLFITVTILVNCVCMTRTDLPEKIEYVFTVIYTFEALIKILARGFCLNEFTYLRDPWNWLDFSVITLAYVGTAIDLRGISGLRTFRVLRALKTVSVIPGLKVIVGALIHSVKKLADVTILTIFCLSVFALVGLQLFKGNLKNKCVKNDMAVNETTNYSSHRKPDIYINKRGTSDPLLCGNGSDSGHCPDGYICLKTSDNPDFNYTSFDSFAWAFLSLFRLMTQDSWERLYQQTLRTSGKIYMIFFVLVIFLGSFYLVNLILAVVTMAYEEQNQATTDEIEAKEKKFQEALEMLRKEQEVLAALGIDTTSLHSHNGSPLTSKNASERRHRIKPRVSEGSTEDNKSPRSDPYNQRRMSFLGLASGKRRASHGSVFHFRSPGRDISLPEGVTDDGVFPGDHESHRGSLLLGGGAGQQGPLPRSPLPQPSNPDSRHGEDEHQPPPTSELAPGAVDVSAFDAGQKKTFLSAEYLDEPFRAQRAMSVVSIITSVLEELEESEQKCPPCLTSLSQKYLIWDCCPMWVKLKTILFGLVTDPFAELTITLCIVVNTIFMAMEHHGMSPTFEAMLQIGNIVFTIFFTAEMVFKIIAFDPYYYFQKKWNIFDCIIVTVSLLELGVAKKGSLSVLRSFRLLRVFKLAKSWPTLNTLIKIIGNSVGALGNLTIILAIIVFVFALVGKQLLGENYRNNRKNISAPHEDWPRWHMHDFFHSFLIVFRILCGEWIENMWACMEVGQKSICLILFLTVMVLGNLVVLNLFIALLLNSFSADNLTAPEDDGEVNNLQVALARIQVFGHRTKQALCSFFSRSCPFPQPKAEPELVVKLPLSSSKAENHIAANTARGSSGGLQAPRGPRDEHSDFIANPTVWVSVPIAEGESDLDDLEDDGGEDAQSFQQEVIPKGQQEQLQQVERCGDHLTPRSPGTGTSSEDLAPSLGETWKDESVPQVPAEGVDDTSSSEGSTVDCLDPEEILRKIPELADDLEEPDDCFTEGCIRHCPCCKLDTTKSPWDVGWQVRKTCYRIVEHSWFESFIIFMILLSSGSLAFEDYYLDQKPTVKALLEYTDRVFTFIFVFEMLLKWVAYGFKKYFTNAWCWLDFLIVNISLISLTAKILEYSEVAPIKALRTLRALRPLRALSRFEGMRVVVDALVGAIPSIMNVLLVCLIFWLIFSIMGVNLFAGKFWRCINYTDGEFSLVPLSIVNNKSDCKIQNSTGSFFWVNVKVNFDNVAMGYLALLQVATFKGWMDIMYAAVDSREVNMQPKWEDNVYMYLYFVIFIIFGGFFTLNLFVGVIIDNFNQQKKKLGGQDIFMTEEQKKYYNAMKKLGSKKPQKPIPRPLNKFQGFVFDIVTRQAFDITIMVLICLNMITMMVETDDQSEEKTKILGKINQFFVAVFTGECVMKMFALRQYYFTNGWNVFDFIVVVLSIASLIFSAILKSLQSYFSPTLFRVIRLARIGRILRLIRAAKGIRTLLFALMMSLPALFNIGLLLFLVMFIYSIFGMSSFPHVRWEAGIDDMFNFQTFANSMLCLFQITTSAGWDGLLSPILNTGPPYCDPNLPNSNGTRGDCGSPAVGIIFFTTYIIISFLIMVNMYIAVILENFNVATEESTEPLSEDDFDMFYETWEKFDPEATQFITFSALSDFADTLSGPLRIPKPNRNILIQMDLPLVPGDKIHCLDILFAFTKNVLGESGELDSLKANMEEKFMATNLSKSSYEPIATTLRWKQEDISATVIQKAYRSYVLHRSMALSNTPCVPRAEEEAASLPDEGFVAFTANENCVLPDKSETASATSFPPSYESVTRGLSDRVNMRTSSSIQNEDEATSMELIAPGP
Assay type: cell-based
Description: Compounds were tested on human Nav1.8 and Nav1.5 channels stably expressed in human embryo kidney (HEK) 293 cells. Sodium current measurements on Qube® were conducted as follows: automated 384-well patch-clamp assays on the Qube® platform (Sophion Biosciences) were used to measure the inhibition of sodium flow through human Nav1.8 and Nav1.5 channels. Whole-cell voltage-clamp recordings were performed in QChips® (Sophion Biosciences) at room temperature. Nav1.8 current measurements on Qube® were obtained as follows: Nav1.8 currents were elicited with a 10 second 1 Hertz (Hz) pulse train from a holding potential of −90 millivolts (mV), delivered to the cells once per minute in the control condition (DMSO only) and after compound addition. The 1 hertz pulse train stimulation consisted of ten test pulses to 10 millivolt (mV) for 20 milliseconds (ms), each of which was followed by a 980 millisecond repolarization to −67 millivolts. At the end of the 10 second pulse train stimulation, a second hyperpolarization step to −100 millivolt (mV) was used to recover Nav1.8 from fast inactivation. The peak currents elicited by the 1st and 10th test pulses were used to determine IC50 values for resting inhibition and inactivated state inhibition. Nav1.5 current measurements on Qube® were obtained as follows: Nav1.5 currents were elicited with a 20 second 3 Hertz pulse train in the control condition (DMSO only) and after compound addition. The pulse train consisted of sixty 20 millisecond test pulses to 0 millivolt from a holding potential of −80 millivolt (mV). The average peak currents elicited by the last 3 test pulses were used to determine IC50 values for Nav1.5 inhibition.
The following buffers were used for the Qube® recordings: External buffer for Nav1.8 Qube® recording: 150 NaCl, 2 CaCl2, 5 KCl, 1 Mg Cl2, 10 HEPES, 12 Dextrose; External buffer for Qube® Nav1.5 recording: 120 N-Methyl-D-Glucamine, 40 NaCl, 1 KCl, 2.7 CaCl2, 5 HEPES, 0.5 MgCl2: and Internal buffer for Qube® recording: 120 CsF, 30 CsCl, 10 EGTA, 5 HEPES, 5 NaF, 2 MgCl2.
For all Qube® experiments offline analysis was used to determine percent inhibition as a function of drug concentration. IC50 values were determined by fitting to the Hill equation.
With `NS(=O)(=O)c1cc(NC(=O)c2cc(C(F)(F)F)cnc2N2CCC(n3cccn3)C2)ccn1` (stereo not shown) [Example 94, 2-(3-pyrazol-1-ylpyrrolidin-1-yl)-N-(2-sulfamoyl-4-pyridyl)-5-(trifluoromethyl)pyridine-3-carboxamide] the IC50 was 745 nM. With `CC1CN(c2ncc(C(F)(F)F)cc2C(=O)Nc2ccnc(C#N)c2)CCC1(F)F` (single isomer, unassigned) [Example 154, (S or R)-N-(2-cyanopyridin-4-yl)-2-(4,4-difluoro-3-methylpiperidin-1-yl)-5-(trifluoro-methyl)nicotinamide] the IC50 was 84 nM. In the case of `C[C@@H]1CN(c2ncc(C(F)(F)F)cc2C(=O)Nc2ccnc(S(N)(=O)=O)c2)C[C@H](C)[C@]1(C)O` [Example 75, 2-((3R,4s,5S)-4-hydroxy-3,4,5-trimethylpiperidin-1-yl)-N-(2-sulfamoylpyridin-4-yl)-5-(trifluoromethyl)nicotinamide], the IC50 is reported as 233 nM. For `N#Cc1noc(NC(=O)c2cc(C(F)(F)F)cnc2N2CCCCCC2)n1` [Example 45, 2-(azepan-1-yl)-N-(3-cyano-1,2,4-oxadiazol-5-yl)-5-(trifluoromethyl)pyridine-3-carboxamide], the IC50 was 1790 nM. `NS(=O)(=O)c1cc(NC(=O)c2cc(C(F)(F)F)cnc2N2CCCC(c3cc(F)cc(F)c3)C2)ccn1` (stereo not shown) [Example 81, 2-[3-(3,5-difluorophenyl)-1-piperidyl]-N-(2-sulfamoyl-4-pyridyl)-5-(trifluoromethyl)pyridine-3-carboxamide] was tested, and the IC50 was 39 nM. `NS(=O)(=O)c1cc(NC(=O)c2cc(C(F)(F)F)cnc2N2CCc3sccc3C2)ccn1` [Example 79, 2-(6,7-dihydro-4H-thieno[3.2-c]pyridin-5-yl)-N-(2-sulfamoyl-4-pyridyl)-5-(trifluoromethyl)pyridin-3-carboxamide] showed an IC50 of 21 nM. Compound `CC1CN(c2ncc(C(F)(F)F)cc2C(=O)Nc2ccnc(S(N)(=O)=O)c2)CCC(C(F)(F)F)O1` (single isomer, unassigned) [Example 120, 2-[(2S,7R or 2R,7S)-2-methyl-7-(trifluoromethyl)-1,4-oxazepan-4-yl]-N-(2-sulfamoylpyridin-4-yl)-5-(trifluoromethyl)pyridine-3-carboxamide] has an IC50 of 2.9 nM. With `CC1CC(F)(F)CCN1c1ncc(C(F)(F)F)cc1C(=O)Nc1ccnc(S(N)(=O)=O)c1` (single isomer, unassigned) [Example 74, (S or R)-2-(4,4-difluoro-2-methylpiperidin-1-yl)-N-(2-sulfamoylpyridin-4-yl)-5-(trifluoromethyl)nicotinamide] the IC50 was 319 nM. Compound `NS(=O)(=O)c1cc(NC(=O)c2cc(C(F)(F)F)cnc2N2CCCC(CO)C2)ccn1` (stereo not shown) [Example 7, 2-(3-(hydroxymethyl)piperidin-1-yl)-N-(2-sulfamoylpyridin-4-yl)-5-(trifluoromethyl)nicotinamide] has an IC50 of 2830 nM. Compound `NS(=O)(=O)c1cccc(NC(=O)c2cc(C(F)(F)F)cnc2N2CCCCCC2)n1` [Example 141, 2-(azepan-1-yl)-N-(6-sulfamoyl-2-pyridyl)-5-(trifluoromethyl)pyridine-3-carboxamide] has an IC50 of 245 nM. Work on `NS(=O)(=O)c1cc(NC(=O)c2cc(C(F)(F)F)c(C3CC3)nc2N2CCCC(F)(F)CC2)ccn1` [Example 185, 6-cyclopropyl-2-(4,4-difluoroazepan-1-yl)-N-(2-sulfamoylpyridin-4-yl)-5-(trifluoromethyl)nicotinamide] yielded an IC50 of 3.8 nM. `Cc1ccc(C(=O)Nc2ccnc(S(N)(=O)=O)c2)c(N2CCCC(F)(F)C(F)C2)n1` (stereo not shown) [Example 40, 6-methyl-N-(2-sulfamoylpyridin-4-yl)-2-(3,4,4-trifluoroazepan-1-yl)nicotinamide] showed an IC50 of 4.1 nM. With `CC12CCN(c3ncc(C(F)(F)F)cc3C(=O)Nc3ccnc(S(N)(=O)=O)c3)CC1C2(F)F` (single isomer, unassigned) [Example 61, 2-[(1S,6S or 1R,6R)-7,7-difluoro-6-methyl-3-azabicyclo[4.1.0]heptan-3-yl]-N-(2-sulfamoyl-4-pyridyl)-5-(trifluoromethyl)pyridine-3-carboxamide] the IC50 was 15 nM.
